Experimental data published in ChEMBL document CHEMBL1150320, “Novel ORL1-selective antagonists with oral bioavailability and brain penetrability” (Bioorg Med Chem Lett, 2008).

Columns and labels:
[1] = Metabolic stability in human liver microsomes assessed as drug remaining after 30 mins; assay type: ADME, Microsome; conditions: read-out: Stability
[2] = Clearance in ICR mouse at 3 mg/kg, po and 1 mg/kg, iv; assay type: ADME, organism-based; conditions: in vivo
[3] = Inhibition of sodium channel site 2 at 10 uM
Mus musculus = test: Biodistribution in ICR mouse brain at 30 mg/kg, po after 60 mins; assay type: ADME, organism-based; design: dose 30 mg/kg, route oral; conditions: in vivo, 1 h
[4] = Ratio of drug level in brain to plasma in ICR mouse at 30 mg/kg, po after 60 mins; assay type: ADME, organism-based; design: dose 30 mg/kg, route oral; conditions: read-out: BPR
[5] = target: 5-hydroxytryptamine receptor 2B (Homo sapiens) (UniProt P41595); test: Inhibition of 5HT2B receptor at 10 uM
[6] = target: Synaptic vesicular amine transporter (Homo sapiens) (UniProt Q05940); test: Inhibition of monoamine transporter at 10 uM
Mu-type opioid receptor [7] = target: T1, Mu-type opioid receptor (Homo sapiens, UniProt P35372); test: Displacement of [3H]diprenorphin from human mu opioid receptor expressed in CHO cell membrane; assay type: cell membranes
[8] = Half life in ICR mouse at 3 mg/kg, po and 1 mg/kg, iv; assay type: ADME, organism-based; conditions: in vivo
[9] = Half life in Sprague-Dawley rat at 3 mg/kg, po and 1 mg/kg, iv; assay type: ADME, organism-based; conditions: in vivo
[10] = target: T2, Delta-type opioid receptor (Homo sapiens, UniProt P41143); test: Agonist activity at human delta opioid receptor expressed in CHO cell membrane by [35S]GTPgammaS binding assay; assay type: functional, cell membranes
Nociceptin receptor [11] = target: T3, Nociceptin receptor (Homo sapiens, UniProt P41146); test: Displacement of [125I]Tyr14-NC/OFQ from human ORL1 receptor
Nociceptin receptor [12] = target: T3, Nociceptin receptor; test: Antagonist activity at human ORL1 receptor by [35S]GTPgammaS binding assay; assay type: functional
[13] = Bioavailability in rhesus monkey at 3 mg/kg, po and 1 mg/kg, iv; assay type: ADME, organism-based, Macaca mulatta; conditions: in vivo
[14] = Half life in rhesus monkey at 3 mg/kg, po and 1 mg/kg, iv; assay type: ADME, organism-based, Macaca mulatta; conditions: in vivo
[15] = target: T4, Kappa-type opioid receptor (Homo sapiens, UniProt P41145); test: Agonist activity at human kappa opioid receptor expressed in CHO cell membrane by [35S]GTPgammaS binding assay
hERG (KCNH2) = hERG (KCNH2) (Homo sapiens, UniProt Q12809); test: Inhibition of human ERG at 10 uM
[16] = Biodistribution in ICR mouse plasma at 30 mg/kg, po after 60 mins; assay type: ADME, organism-based; design: dose 30 mg/kg, route oral; conditions: read-out: Drug uptake
[17] = Bioavailability in ICR mouse at 3 mg/kg, po and 1 mg/kg, iv; assay type: ADME, organism-based; conditions: in vivo
Mu-type opioid receptor [18] = target: T1, Mu-type opioid receptor; test: Agonist activity at human mu opioid receptor expressed in CHO cell membrane by [35S]GTPgammaS binding assay; assay type: functional, cell membranes
[19] = Clearance in Sprague-Dawley rat at 3 mg/kg, po and 1 mg/kg, iv; assay type: ADME, organism-based; conditions: in vivo
[20] = Clearance in rhesus monkey at 3 mg/kg, po and 1 mg/kg, iv; assay type: ADME, organism-based, Macaca mulatta; conditions: in vivo
[21] = Bioavailability in Sprague-Dawley rat at 3 mg/kg, po and 1 mg/kg, iv; assay type: ADME, organism-based; conditions: in vivo
[22] = target: T4, Kappa-type opioid receptor; test: Displacement of [3H]U-69593 from human kappa opioid receptor expressed in CHO cell membrane; assay type: cell membranes
[23] = target: T2, Delta-type opioid receptor; test: Displacement of [3H]naltrindole from human delta opioid receptor expressed in CHO cell membrane; assay type: cell membranes

T2 sequence (P41143 whole entry): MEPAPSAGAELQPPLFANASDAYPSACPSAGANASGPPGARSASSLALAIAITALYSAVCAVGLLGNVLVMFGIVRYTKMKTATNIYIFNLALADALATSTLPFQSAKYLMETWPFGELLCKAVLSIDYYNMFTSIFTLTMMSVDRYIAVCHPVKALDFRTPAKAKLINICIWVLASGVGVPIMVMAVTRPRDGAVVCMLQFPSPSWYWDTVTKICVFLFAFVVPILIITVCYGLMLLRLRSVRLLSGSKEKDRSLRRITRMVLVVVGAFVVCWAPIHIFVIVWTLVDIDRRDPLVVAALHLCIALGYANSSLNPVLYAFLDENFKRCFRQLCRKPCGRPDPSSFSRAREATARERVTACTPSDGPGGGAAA
T1 sequence (P35372 whole entry): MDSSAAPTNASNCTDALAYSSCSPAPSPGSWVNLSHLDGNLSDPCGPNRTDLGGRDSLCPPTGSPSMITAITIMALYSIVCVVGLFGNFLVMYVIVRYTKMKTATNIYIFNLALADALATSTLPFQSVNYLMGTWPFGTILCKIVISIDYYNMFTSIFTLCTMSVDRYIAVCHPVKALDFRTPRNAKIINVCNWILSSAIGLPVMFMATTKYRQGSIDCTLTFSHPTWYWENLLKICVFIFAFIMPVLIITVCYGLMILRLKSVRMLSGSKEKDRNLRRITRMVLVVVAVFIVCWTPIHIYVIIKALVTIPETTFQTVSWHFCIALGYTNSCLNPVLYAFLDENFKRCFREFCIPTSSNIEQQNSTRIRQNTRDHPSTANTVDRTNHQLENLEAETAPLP
T4 sequence (P41145 whole entry): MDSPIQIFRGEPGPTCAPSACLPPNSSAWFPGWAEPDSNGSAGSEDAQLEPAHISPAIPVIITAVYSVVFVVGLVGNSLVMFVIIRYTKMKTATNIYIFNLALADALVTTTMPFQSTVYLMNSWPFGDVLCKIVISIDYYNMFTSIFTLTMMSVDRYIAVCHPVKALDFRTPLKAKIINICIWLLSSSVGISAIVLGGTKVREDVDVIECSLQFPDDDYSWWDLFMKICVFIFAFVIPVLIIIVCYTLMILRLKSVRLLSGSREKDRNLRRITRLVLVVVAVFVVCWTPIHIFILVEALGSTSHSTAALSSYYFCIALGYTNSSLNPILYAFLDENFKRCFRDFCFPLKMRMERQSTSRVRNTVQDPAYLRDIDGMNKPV
T3 sequence (P41146 whole entry): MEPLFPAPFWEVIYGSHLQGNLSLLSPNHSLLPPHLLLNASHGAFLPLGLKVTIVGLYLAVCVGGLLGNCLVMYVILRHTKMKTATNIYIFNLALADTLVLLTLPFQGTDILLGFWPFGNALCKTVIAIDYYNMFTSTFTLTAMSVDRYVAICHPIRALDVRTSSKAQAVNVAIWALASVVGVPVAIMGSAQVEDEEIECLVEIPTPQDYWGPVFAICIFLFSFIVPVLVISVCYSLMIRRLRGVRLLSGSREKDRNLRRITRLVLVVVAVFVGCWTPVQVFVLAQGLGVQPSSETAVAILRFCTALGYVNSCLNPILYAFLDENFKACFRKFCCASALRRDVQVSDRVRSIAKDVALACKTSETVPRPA
Chain of 5-hydroxytryptamine receptor 2B (Homo sapiens) (P41595 whole entry): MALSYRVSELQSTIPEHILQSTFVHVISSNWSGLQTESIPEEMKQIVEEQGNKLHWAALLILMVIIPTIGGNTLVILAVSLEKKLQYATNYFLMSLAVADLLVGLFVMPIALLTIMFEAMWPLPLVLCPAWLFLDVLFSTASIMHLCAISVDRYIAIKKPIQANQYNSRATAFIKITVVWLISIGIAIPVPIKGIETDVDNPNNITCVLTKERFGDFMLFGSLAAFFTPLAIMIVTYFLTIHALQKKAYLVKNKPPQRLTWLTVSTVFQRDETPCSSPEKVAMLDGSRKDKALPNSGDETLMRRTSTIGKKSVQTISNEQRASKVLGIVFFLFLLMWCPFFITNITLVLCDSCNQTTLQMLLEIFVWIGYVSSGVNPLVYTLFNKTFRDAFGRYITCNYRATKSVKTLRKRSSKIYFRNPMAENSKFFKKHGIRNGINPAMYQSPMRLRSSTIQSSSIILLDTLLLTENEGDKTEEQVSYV
Chain of Synaptic vesicular amine transporter (Homo sapiens) (Q05940 whole entry): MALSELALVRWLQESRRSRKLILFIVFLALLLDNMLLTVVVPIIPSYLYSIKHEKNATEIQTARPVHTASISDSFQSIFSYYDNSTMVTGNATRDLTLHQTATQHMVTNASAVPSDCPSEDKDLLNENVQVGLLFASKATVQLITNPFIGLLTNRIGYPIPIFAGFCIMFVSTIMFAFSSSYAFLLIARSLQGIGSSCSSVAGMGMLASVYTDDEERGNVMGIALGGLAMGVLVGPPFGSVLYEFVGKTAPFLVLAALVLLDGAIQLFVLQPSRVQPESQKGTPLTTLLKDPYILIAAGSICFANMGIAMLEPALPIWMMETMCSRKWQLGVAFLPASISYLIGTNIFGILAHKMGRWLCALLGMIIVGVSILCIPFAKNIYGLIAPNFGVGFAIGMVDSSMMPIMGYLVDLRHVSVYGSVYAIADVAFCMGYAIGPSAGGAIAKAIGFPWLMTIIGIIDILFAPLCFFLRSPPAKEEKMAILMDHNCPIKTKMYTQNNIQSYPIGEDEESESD
Chain of hERG (KCNH2) (Q12809 whole entry): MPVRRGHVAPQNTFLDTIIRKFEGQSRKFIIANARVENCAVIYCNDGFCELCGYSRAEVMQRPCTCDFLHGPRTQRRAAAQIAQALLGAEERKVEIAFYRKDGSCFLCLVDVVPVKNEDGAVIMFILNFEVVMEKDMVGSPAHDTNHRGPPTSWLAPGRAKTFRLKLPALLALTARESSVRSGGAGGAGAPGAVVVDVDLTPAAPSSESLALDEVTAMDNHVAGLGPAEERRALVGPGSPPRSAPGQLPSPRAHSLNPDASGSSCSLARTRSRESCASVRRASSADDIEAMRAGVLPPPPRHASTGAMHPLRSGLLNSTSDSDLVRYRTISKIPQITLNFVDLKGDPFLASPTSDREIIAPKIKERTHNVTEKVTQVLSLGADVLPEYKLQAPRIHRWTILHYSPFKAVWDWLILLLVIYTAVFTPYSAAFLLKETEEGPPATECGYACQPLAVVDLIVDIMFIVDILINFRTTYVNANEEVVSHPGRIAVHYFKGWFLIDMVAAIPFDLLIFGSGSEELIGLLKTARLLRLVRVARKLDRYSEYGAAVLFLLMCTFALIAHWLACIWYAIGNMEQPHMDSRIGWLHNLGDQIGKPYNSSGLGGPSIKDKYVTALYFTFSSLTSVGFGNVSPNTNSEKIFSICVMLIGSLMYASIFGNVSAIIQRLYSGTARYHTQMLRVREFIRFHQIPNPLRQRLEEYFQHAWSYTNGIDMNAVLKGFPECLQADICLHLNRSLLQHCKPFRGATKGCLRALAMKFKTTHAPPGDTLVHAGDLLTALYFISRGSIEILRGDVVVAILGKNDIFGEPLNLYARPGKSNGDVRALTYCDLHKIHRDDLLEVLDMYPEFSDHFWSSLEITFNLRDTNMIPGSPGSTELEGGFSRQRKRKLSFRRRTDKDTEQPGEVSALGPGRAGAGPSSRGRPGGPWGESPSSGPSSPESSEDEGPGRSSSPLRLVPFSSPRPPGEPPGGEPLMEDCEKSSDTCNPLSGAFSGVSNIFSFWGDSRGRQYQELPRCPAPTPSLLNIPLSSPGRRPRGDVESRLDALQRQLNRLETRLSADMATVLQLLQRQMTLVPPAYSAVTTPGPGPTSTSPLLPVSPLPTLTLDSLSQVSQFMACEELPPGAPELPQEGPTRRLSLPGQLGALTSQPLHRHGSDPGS

Q: Which results are given for C[C@@H]1CN(CCO)CCN1c1cc2[nH]c(SC(C)(C)C)nc2cc1Cl?
A: remaining at 0.5 h [1]: 87%; clearance [2]: 121 mL/min/kg; inhibition [3]: 68%; Drug uptake (Mus musculus): 1.04 µmol/kg; Kp at 1 h [4]: 0.47; inhibition [5]: 52%; inhibition [6]: 52%; IC50 (Mu-type opioid receptor [7]): 1900 nM; half-life [8]: 48.6 min; half-life [9]: 55.2 min; IC50 [10]: 1200 nM; IC50 (Nociceptin receptor [11]): 2.6 nM; IC50 (Nociceptin receptor [12]): 0.65 nM; bioavailability [13]: 37%; half-life [14]: 186 min; IC50 [15]: 180 nM; inhibition at 10 µM (hERG (KCNH2)): 86%; concentration at 1 h [16]: 2380 nM; bioavailability [17]: 33%; IC50 (Mu-type opioid receptor [18]): 97 nM; clearance [19]: 81 mL/min/kg; clearance [20]: 20 mL/min/kg; bioavailability [21]: 29%; IC50 [22]: 120 nM; IC50 [23]: > 1000 nM

Q: Which results are given for CCC(CC)Sc1nc2cc(Cl)c(N3C[C@@H]4C[C@H]3CN4CCO)cc2[nH]1?
A: remaining at 0.5 h [1]: 63%; IC50 (Nociceptin receptor [11]): 18 nM; IC50 (Nociceptin receptor [12]): 27 nM

Q: For CC(C)(C)Sc1nc2cc(Cl)c(N3CCN(CCO)CC3)cc2[nH]1, which remaining at 0.5 h [1] is on record?
A: 71%

Q: What about the IC50 [23] of the same compound?
A: > 1000 nM

Q: With CCC(C)(CC)Sc1nc2cc(Cl)c(N3CCN(CCO)CC3)cc2[nH]1 as the compound, how does the remaining at 0.5 h [1] read?
A: 36%

Q: With CCC(CC)Sc1nc2cc(Cl)c(N3CCN(CCO)C(C)C3)cc2[nH]1 (racemic) as the compound, how does the remaining at 0.5 h [1] read?
A: 17%

Q: And the IC50 (Nociceptin receptor [11])?
A: 8 nM

Q: What about the IC50 (Nociceptin receptor [12]) of the same compound?
A: 22 nM

Q: Which results are given for CCC(CC)Sc1nc2cc(Cl)c(N3CCN(CCO)C(C)(C)C3)cc2[nH]1?
A: remaining at 0.5 h [1]: 7%; IC50 (Nociceptin receptor [11]): 73 nM; IC50 (Nociceptin receptor [12]): 59 nM

Q: Which remaining at 0.5 h [1] does the source give for C[C@H]1CN(CCO)CCN1c1cc2[nH]c(SC(C)(C)C)nc2cc1Cl here?
A: 70%

Q: And the IC50 (Mu-type opioid receptor [7])?
A: 67 nM

Q: What about the EC50 [10] of the same compound?
A: 14 nM

Q: What about the Emax [10] of the same compound?
A: 94%

Q: What about the IC50 (Nociceptin receptor [11]) of the same compound?
A: 1.1 nM

Q: What about the IC50 (Nociceptin receptor [12]) of the same compound?
A: 2.2 nM

Q: What about the EC50 [15] of the same compound?
A: 18 nM

Q: What about the IC50 (Mu-type opioid receptor [18]) of the same compound?
A: 25 nM

Q: What about the IC50 [22] of the same compound?
A: 5.3 nM

Q: What about the IC50 [23] of the same compound?
A: 238 nM
